Results on 16 compounds are retold here after patent US20130109682A1, “CYCLIC ETHER COMPOUNDS USEFUL AS KINASE INHIBITORS” (NOVARTIS AG, priority 2010, published 2013).

Structures are written as SMILES. pIC50: −log10 of the molar value.

What all share (type): biochemical
The target of assay [1] is PIM3 (Homo sapiens, UniProt Q86V86). In words: Pim 3 AlphaScreen assay (high ATP). The settings on record: read-out: Pim3 IC50. As for the experimental part: (§1) Pim1, Pim2, Pim3 AlphaScreen Assay Pim 1, Pim 2 & Pim 3 AlphaScreen assays using high ATP (11-125×ATP Km) were used to determine the biochemical activity of the inhibitors. The activity of Pim 1, Pim 2, & Pim 3 is measured using a homogeneous bead based system quantifying the amount of phosphorylated peptide substrate resulting from kinase-catalyzed phosphoryl transfer to a peptide substrate. Compounds to be tested are dissolved in 100% DMSO and directly distributed to a white 384-well plate at […] per well. To start the reaction, 5 μl of 100 nM Bad peptide (Biotin-AGAGRSRHSSYPAGT —OH) and ATP (concentrations described below) in assay buffer (50 mM Hepes, pH=7.5, 5 mM MgCl2, 0.05% BSA, 0.01% Tween-20, 1 mM DTT) is added to each well. This is followed by the addition of 5 μl/well of Pim 1, Pim 2 or Pim 3 kinase in assay buffer (concentrations described below). Final assay concentrations (described below) are in 2.5% DMSO. The reactions are performed for ˜2 hours, then stopped by the addition of 10 μl of 0.75 μg/ml anti-phospho Ser/Thr antibody (Cell Signaling), 10 μg/ml Protein A AlphaScreen beads (Perkin Elmer), and 10 μg/ml streptavidin coated AlphaScreen beads in stop/detection buffer (50 mM EDTA, 95 mM Tris, pH=7.5, 0.01% Tween-20). The stopped reactions are incubated overnight in the dark. The phosphorylated peptide is detected via an […] initiated chemiluminescence/fluorescence cascade using the Envision plate reader (Perkin Elmer).
(§2) IC50, the half maximal inhibitory concentration, represents the concentration of a test compound that is required for 50% inhibition of its target in vitro under the described assay conditions.
Background: In Alpha technology, singlet oxygen from a donor bead excites a nearby acceptor bead.

Assay [2] addresses GSK3β (Homo sapiens, UniProt P49841). Kind of assay: GSK3β ATP depletion assay. The settings on record: ATP depletion assay; read-out: GSK3b IC50. The procedure, abridged: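 Kinase activity is read as ATP consumption: luciferase luminescence reports the ATP remaining once roughly half of the 2 μM ATP is used. Reaction mix: 5 nM GSK3β, 10 μM b-CREB peptide, 50 mM Tris pH 7.5, 15 mM MgCl2, 1 mM DTT, 0.1% BSA, 2.5% DMSO. Enzyme and peptide are preincubated 15 min before ATP is added.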

For assay [3], the target named is PIM1 (Homo sapiens, UniProt P11309). Kind of assay: Pim 1 AlphaScreen assay (high ATP). The settings on record: read-out: Pim1 IC50. As for the experimental part:
as §1, §2

Assay [4] addresses PIM2 (Homo sapiens, UniProt Q9P1W9). In words: Pim 2 AlphaScreen assay (high ATP). The note with it: read-out: Pim2 IC50. The procedure, abridged:
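IC50 values rest on detection of phosphorylated Bad peptide: after a ~2 h kinase reaction, an EDTA stop buffer containing anti-phospho Ser/Thr antibody, Protein A and streptavidin AlphaScreen beads was added and read after overnight dark incubation. ATP was high (11-125× Km), with 2.5% DMSO in pH 7.5 Hepes buffer containing MgCl2, BSA, Tween-20 and DTT.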

GSK3β, sequence (P49841 whole entry, species assumed): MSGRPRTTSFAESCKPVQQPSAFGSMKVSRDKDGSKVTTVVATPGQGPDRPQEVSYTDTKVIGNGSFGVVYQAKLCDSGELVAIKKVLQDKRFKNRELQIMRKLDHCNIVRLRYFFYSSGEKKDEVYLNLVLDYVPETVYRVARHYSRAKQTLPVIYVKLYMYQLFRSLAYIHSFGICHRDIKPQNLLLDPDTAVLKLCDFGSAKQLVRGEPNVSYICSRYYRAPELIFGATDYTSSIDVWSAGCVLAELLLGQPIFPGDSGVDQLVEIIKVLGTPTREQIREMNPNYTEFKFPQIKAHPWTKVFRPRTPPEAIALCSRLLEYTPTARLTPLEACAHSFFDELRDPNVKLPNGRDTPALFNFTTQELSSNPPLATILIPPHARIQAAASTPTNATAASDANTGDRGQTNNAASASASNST
PIM1, sequence (P11309 whole entry): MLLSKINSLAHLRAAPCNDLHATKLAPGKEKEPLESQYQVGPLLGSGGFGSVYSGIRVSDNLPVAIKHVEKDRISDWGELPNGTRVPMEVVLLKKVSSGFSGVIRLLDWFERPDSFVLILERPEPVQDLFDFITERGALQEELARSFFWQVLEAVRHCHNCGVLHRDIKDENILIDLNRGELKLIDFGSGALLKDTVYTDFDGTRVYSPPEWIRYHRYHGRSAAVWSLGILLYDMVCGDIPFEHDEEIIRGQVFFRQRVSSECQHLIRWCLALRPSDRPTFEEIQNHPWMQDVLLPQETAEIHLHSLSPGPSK
PIM2, sequence (Q9P1W9 whole entry): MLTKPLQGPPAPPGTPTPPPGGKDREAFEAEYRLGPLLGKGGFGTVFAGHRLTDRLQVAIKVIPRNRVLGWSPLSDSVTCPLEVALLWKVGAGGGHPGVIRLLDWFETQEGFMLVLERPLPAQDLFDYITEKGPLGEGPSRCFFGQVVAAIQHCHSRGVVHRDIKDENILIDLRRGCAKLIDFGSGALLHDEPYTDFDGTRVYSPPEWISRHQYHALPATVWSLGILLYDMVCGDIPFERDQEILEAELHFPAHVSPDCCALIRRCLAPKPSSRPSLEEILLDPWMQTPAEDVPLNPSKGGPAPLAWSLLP

As a reminder, the pIC50 is the IC50 on a negative log10 scale, so that one unit is a factor of ten. Take `CC(C)(C)[C@@H]1O[C@H](c2ccncc2NC(=O)c2ccc(F)c(-c3c(F)cccc3F)n2)C[C@H](N)[C@H]1O` [Example 254, N-(4-((2S,4S,5R,6S)-4-amino-6-(tert-butyl)-5-hydroxytetrahydro-2H-pyran-2-yl)pyridin-3-yl)-6-(2,6-difluorophenyl)-5-fluoropicolinamide]: the pIC50 in assay [1] is 7.80; in assay [2] it was 5.33; in assay [3], 9.11; in assay [4] it was 7.33.

Regarding `N[C@@H]1C[C@H](c2ccncc2NC(=O)c2ccc(F)c(-c3c(F)cccc3F)n2)O[C@H](C2CC2)[C@H]1O` [Example 235, N-(4-((2R,4R,5S,6R)-4-amino-6-cyclopropyl-5-hydroxytetrahydro-2H-pyran-2-yl)pyridin-3-yl)-6-(2,6-difluorophenyl)-5-fluoropicolinamide], the negative-log IC50 (pIC50) is 8.12 in assay [1], 5.13 in assay [2], 9.46 in assay [3] and 8.00 in assay [4].

On to `COc1cc(F)c(-c2nc(C(=O)Nc3cnccc3[C@H]3C[C@@H](N)[C@](C)(O)[C@@H](C4CC4)O3)ccc2F)c(F)c1` [Example 265, N-(4-((2R,4R,5S,6R)-4-amino-6-cyclopropyl-5-hydroxy-5-methyltetrahydro-2H-pyran-2-yl)pyridin-3-yl)-6-(2,6-difluoro-4-methoxyphenyl)-5-fluoropicolinamide], for which the pIC50 is 8.64 in assay [1], 5.98 in assay [2], 9.89 in assay [3] and 8.02 in assay [4].

Regarding `C[C@]1(O)[C@H](N)C[C@H](c2ccncc2NC(=O)c2ccc(F)c(-c3c(F)cccc3F)n2)OC12CC2` [Example 267, N-(4-((5R,7R,8S)-7-amino-8-hydroxy-8-methyl-4-oxaspiro[2.5]octan-5-yl)pyridin-3-yl)-6-(2,6-difluorophenyl)-5-fluoropicolinamide], the pIC50 was 7.53 in assay [1], 5.16 in assay [2], 8.60 in assay [3] and 6.67 in assay [4].

As for `C[C@@]1(O)[C@@H](O)C[C@@H](c2ccncc2NC(=O)c2nc(-c3c(F)cccc3F)ncc2N)O[C@H]1C1CC1` [Example 249, 5-amino-N-(4-((2S,4S,5R,6S)-6-cyclopropyl-4,5-dihydroxy-5-methyltetrahydro-2H-pyran-2-yl)pyridin-3-yl)-2-(2,6-difluorophenyl)pyrimidine-4-carboxamide], the pIC50 is 4.68 in assay [1], 5.22 in assay [2], 6.00 in assay [3] and under 4.60 in assay [4].

With `CC(C)[C@H]1O[C@@H](c2ccncc2NC(=O)c2nc(-c3c(F)cccc3F)ncc2N)C[C@@H](N)[C@@H]1O` [Example 272, 5-amino-N-(4-((2R,4R,5S,6R)-4-amino-5-hydroxy-6-isopropyltetrahydro-2H-pyran-2-yl)pyridin-3-yl)-2-(2,6-difluorophenyl)pyrimidine-4-carboxamide], the pIC50 in assay [1] was 8.05; in assay [2], 5.91; in assay [3], 9.18; in assay [4], 7.96.

On to `C[C@]1(O)[C@H](O)C[C@H](c2ccncc2NC(=O)c2nc(-c3c(F)cccc3F)ncc2N)O[C@@H]1C1CC1` [Example 246, 5-amino-N-(4-((2R,4R,5S,6R)-6-cyclopropyl-4,5-dihydroxy-5-methyltetrahydro-2H-pyran-2-yl)pyridin-3-yl)-2-(2,6-difluorophenyl)pyrimidine-4-carboxamide], for which the pIC50 in assay [1] was 6.01; in assay [2], 6.01; in assay [3], 7.15; in assay [4] it was 6.09.

`Nc1cnc(-c2c(F)cccc2F)nc1C(=O)Nc1cnccc1[C@H]1C[C@@H](O)[C@H](O)C2(CC2)O1` [Example 252, 5-amino-2-(2,6-difluorophenyl)-N-(4-((5R,7R,8S)-7,8-dihydroxy-4-oxaspiro[2.5]octan-5-yl)pyridin-3-yl)pyrimidine-4-carboxamide]: the pIC50 is 6.60 in assay [1], 6.24 in assay [2], 7.69 in assay [3] and 6.07 in assay [4].

In the case of `C[C@]1(O)[C@H](N)C[C@H](c2ccncc2NC(=O)c2csc(-c3c(F)cccc3F)n2)O[C@@H]1C1CC1` [Example 263, N-(4-((2R,4R,5S,6R)-4-amino-6-cyclopropyl-5-hydroxy-5-methyltetrahydro-2H-pyran-2-yl)pyridin-3-yl)-2-(2,6-difluorophenyl)thiazole-4-carboxamide], the negative logarithm of the IC50 (pIC50) in assay [1] was 7.64; in assay [2], 6.48; in assay [3] it was 8.90; in assay [4] it was 7.14.

As to `CC(C)[C@H]1O[C@@H](c2ccncc2NC(=O)c2ccc(F)c(-c3c(F)cccc3F)n2)C[C@@H](N)[C@@H]1O` [Example 271, N-(4-((2R,4R,5S,6R)-4-amino-5-hydroxy-6-isopropyltetrahydro-2H-pyran-2-yl)pyridin-3-yl)-6-(2,6-difluorophenyl)-5-fluoropicolinamide], the pIC50 in assay [1] is 8.68; in assay [2], 5.56; in assay [3], 9.82; in assay [4], 8.37.

For the compound `N[C@@H]1C[C@H](c2ccncc2NC(=O)c2ccnc(-c3c(F)cccc3F)n2)O[C@@H]2CCCC[C@]12O` [Example 237, N-(4-((2R,4R,4aS,8aR)-4-amino-4a-hydroxyoctahydro-2H-chromen-2-yl)pyridin-3-yl)-2-(2,6-difluorophenyl)pyrimidine-4-carboxamide], the negative-log IC50 (pIC50) is 7.62 in assay [1], 7.89 in assay [2], 8.47 in assay [3] and 7.15 in assay [4].

For `CC(C)(C)[C@H]1O[C@@H](c2ccncc2NC(=O)c2ccnc(-c3c(F)cccc3F)n2)C[C@@H](N)[C@@H]1O` [Example 277, N-(4-((2R,4R,5S,6R)-4-amino-6-(tert-butyl)-5-hydroxytetrahydro-2H-pyran-2-yl)pyridin-3-yl)-2-(2,6-difluorophenyl)pyrimidine-4-carboxamide], the pIC50 in assay [1] was 7.64; in assay [2], 6.30; in assay [3] it was 8.98; in assay [4], 7.56.

Take `N[C@@H]1C[C@H](c2ccncc2NC(=O)c2ccc(F)c(-c3c(F)cccc3F)n2)O[C@@H]2CCC(=O)N[C@@H]12` [Example 241, N-(4-((2R,4R,4aS,8aR)-4-amino-6-oxooctahydro-2H-pyrano[3,2-b]pyridin-2-yl)pyridin-3-yl)-6-(2,6-difluorophenyl)-5-fluoropicolinamide]: the pIC50 in assay [1] is 6.88; in assay [2], 5.20; in assay [3], 7.68; in assay [4], 6.41.

`C[C@@]1(O)[C@@H](N)C[C@@H](c2ccncc2NC(=O)c2ccc(F)c(-c3c(F)cccc3F)n2)OC12CC2` [Example 266, N-(4-((5S,7S,8R)-7-amino-8-hydroxy-8-methyl-4-oxaspiro[2.5]octan-5-yl)pyridin-3-yl)-6-(2,6-difluorophenyl)-5-fluoropicolinamide]: the negative-log IC50 (pIC50) is 7.56 in assay [1], 5.22 in assay [2], 8.70 in assay [3] and 6.40 in assay [4].

As to `C[C@]1(O)[C@H](N)C[C@H](c2ccncc2NC(=O)c2ccc(F)c(-c3c(F)cccc3F)n2)O[C@@H]1C1CC1` [Example 256, N-(4-((2R,4R,5S,6R)-4-amino-6-cyclopropyl-5-hydroxy-5-methyltetrahydro-2H-pyran-2-yl)pyridin-3-yl)-6-(2,6-difluorophenyl)-5-fluoropicolinamide], the pIC50 in assay [1] was 8.77; in assay [2], 5.33; in assay [3] it was 9.77; in assay [4], 8.21.

As to `O=C(Nc1cnccc1[C@H]1C[C@@H](O)[C@H](O)C2(CC2)O1)c1ccc(F)c(-c2c(F)cccc2F)n1` [Example 253, 6-(2,6-difluorophenyl)-N-(4-((5R,7R,8S)-7,8-dihydroxy-4-oxaspiro[2.5]octan-5-yl)pyridin-3-yl)-5-fluoropicolinamide], the pIC50 in assay [1] was 7.90; in assay [2], 6.56; in assay [3], 9.00; in assay [4] it was 7.10.
